Reference: ChEMBL document CHEMBL4507301 (2021)

Tests used:
[1] = biological target: Tyrosine-protein kinase HCK (Homo sapiens) (UniProt P08631); conditions: Compound concentration 1000.0 nM
[2] = biological target: T1, Alpha-2A adrenergic receptor (Homo sapiens) (UniProt P08913); conditions: Compound concentration 10.0 uM
T1 sequence (whole entry): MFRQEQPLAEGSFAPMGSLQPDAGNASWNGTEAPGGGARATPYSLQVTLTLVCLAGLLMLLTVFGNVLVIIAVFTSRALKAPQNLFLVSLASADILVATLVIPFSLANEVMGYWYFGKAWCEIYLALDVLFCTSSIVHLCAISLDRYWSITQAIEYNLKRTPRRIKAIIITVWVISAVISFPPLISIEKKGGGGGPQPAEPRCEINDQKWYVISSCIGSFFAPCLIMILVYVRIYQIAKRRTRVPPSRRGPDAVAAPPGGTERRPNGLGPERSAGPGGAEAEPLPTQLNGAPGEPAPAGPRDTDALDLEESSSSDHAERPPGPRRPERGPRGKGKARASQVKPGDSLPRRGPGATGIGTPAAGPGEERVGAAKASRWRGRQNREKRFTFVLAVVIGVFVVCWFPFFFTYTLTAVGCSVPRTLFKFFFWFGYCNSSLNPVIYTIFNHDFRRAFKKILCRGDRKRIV

[3] = biological target: Cyclin-dependent kinase 4 (Homo sapiens) (UniProt P11802); conditions: Compound concentration 1000.0 nM
[4] = biological target: Protein kinase C iota type (Homo sapiens) (UniProt P41743); conditions: Compound concentration 1000.0 nM
Protein kinase C iota type (Homo sapiens), sequence (P41743 whole entry): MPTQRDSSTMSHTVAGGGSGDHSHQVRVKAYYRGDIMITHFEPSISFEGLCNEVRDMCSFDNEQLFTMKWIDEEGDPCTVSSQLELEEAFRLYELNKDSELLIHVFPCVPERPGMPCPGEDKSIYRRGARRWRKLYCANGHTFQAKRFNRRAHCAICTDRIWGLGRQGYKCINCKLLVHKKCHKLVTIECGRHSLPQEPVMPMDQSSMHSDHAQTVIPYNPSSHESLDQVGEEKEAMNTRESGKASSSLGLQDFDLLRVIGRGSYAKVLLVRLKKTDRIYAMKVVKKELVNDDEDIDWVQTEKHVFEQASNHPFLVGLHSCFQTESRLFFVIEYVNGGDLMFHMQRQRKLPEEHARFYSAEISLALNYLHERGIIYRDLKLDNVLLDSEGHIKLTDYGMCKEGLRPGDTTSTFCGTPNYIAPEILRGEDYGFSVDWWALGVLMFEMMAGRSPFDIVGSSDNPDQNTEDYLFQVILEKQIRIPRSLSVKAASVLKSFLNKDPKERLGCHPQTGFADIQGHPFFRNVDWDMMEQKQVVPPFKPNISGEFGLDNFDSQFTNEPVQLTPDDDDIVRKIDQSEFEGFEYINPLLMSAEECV

[5] = system: Tyrosine-protein kinase ABL1 (Homo sapiens), P00519 [F317I]; conditions: Compound concentration 1000.0 nM
[6] = biological target: Serine/threonine-protein kinase Nek1 (Homo sapiens) (UniProt Q96PY6); conditions: Compound concentration 1000.0 nM
[7] = biological target: Calcium/calmodulin-dependent protein kinase type 1B (Homo sapiens) (UniProt Q6P2M8); conditions: Compound concentration 1000.0 nM
Calcium/calmodulin-dependent protein kinase type 1B (Homo sapiens), sequence (Q6P2M8 whole entry): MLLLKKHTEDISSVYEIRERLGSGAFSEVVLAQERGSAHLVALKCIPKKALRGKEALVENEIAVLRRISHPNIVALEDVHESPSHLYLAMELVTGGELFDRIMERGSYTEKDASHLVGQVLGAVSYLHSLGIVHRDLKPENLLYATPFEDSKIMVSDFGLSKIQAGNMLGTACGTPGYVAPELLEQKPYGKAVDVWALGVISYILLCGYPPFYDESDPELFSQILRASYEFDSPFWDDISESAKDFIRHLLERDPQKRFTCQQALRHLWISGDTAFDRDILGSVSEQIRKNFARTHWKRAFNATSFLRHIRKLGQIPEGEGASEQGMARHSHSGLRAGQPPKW

[8] = biological target: Calcium/calmodulin-dependent protein kinase type IV (Homo sapiens) (UniProt Q16566); conditions: Compound concentration 1000.0 nM
[9] = biological target: Tyrosine-protein kinase JAK1 (Homo sapiens) (UniProt P23458); conditions: Compound concentration 1000.0 nM
[10] = biological target: Serine/threonine-protein kinase 16 (Homo sapiens) (UniProt O75716); conditions: Compound concentration 1000.0 nM
[11] = biological target: Mitogen-activated protein kinase kinase kinase 3 (Homo sapiens) (UniProt Q99759); conditions: Compound concentration 1000.0 nM
[12] = system: Tyrosine-protein kinase ABL1 (Homo sapiens), P00519 [H396P]; conditions: Compound concentration 1000.0 nM
[13] = biological target: Eukaryotic translation initiation factor 2-alpha kinase 1 (Homo sapiens) (UniProt Q9BQI3); conditions: Compound concentration 1000.0 nM
Eukaryotic translation initiation factor 2-alpha kinase 1 (Homo sapiens), sequence (Q9BQI3 whole entry): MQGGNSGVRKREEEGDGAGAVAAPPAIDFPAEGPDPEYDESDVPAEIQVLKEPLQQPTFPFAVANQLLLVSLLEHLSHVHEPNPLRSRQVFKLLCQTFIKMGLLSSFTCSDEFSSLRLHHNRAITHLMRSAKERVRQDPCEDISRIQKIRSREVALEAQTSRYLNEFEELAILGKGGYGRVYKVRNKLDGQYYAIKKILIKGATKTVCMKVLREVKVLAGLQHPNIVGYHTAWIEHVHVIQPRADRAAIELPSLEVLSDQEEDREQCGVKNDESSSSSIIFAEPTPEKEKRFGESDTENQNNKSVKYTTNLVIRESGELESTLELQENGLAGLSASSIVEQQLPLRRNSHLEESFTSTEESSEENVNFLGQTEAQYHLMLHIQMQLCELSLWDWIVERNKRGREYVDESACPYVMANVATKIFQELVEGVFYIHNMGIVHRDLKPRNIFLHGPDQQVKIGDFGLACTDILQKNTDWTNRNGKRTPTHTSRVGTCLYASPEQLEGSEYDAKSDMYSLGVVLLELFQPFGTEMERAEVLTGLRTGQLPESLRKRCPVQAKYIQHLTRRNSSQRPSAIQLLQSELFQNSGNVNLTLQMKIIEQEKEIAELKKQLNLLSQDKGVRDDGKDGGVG

[14] = biological target: Tyrosine-protein kinase receptor TYRO3 (Homo sapiens) (UniProt Q06418); conditions: Compound concentration 1000.0 nM
Tyrosine-protein kinase receptor TYRO3 (Homo sapiens), sequence (Q06418 whole entry): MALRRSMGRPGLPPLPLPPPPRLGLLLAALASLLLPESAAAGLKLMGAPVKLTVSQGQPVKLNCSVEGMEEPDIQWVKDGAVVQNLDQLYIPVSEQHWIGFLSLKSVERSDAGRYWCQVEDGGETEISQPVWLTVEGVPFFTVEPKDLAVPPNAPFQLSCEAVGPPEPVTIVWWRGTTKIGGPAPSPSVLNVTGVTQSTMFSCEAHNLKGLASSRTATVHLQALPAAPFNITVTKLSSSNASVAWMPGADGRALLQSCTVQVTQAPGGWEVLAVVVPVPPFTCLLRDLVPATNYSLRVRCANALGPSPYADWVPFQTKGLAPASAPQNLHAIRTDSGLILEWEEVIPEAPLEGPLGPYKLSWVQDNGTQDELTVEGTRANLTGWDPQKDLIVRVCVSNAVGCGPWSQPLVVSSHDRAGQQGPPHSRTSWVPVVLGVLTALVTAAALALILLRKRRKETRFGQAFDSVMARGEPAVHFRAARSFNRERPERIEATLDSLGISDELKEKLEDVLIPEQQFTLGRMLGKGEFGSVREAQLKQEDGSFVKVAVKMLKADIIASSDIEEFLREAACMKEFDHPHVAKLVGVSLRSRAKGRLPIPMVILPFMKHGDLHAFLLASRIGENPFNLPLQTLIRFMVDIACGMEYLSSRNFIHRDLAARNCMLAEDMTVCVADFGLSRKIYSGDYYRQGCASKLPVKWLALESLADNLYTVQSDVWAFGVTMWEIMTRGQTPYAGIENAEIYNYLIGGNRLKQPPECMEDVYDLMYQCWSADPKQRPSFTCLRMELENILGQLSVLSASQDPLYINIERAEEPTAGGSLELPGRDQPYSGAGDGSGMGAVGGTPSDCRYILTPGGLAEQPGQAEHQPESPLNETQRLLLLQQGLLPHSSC

[15] = biological target: Leucine-rich repeat serine/threonine-protein kinase 2 (Homo sapiens) (UniProt Q5S007); conditions: Compound concentration 1000.0 nM
[16] = biological target: Serine/threonine-protein kinase pim-1 (Homo sapiens) (UniProt P11309); conditions: Compound concentration 1000.0 nM
[17] = biological target: Serine/threonine-protein kinase Nek5 (Homo sapiens) (UniProt Q6P3R8); conditions: Compound concentration 1000.0 nM
[18] = biological target: Rho-associated protein kinase 1 (Homo sapiens) (UniProt Q13464); conditions: Compound concentration 1000.0 nM
[19] = biological target: Activin receptor type-2A (Homo sapiens) (UniProt P27037); conditions: Compound concentration 1000.0 nM
Activin receptor type-2A (Homo sapiens), sequence (P27037 whole entry): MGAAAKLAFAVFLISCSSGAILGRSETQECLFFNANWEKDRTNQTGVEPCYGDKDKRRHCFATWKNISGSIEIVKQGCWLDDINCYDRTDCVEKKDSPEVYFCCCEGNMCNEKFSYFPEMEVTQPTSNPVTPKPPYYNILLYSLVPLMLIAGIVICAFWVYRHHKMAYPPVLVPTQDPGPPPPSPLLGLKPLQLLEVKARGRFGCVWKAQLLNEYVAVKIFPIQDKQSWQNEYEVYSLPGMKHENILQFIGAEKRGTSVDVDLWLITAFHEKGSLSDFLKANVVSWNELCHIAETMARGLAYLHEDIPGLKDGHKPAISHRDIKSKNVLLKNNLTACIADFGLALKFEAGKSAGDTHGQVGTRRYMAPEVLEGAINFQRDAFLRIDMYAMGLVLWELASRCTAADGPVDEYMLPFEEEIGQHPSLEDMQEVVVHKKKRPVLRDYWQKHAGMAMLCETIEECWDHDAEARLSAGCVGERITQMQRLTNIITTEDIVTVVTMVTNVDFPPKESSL

[20] = biological target: Phosphatidylinositol 5-phosphate 4-kinase type-2 gamma (Homo sapiens) (UniProt Q8TBX8); conditions: Compound concentration 1000.0 nM
Phosphatidylinositol 5-phosphate 4-kinase type-2 gamma (Homo sapiens), sequence (Q8TBX8 whole entry): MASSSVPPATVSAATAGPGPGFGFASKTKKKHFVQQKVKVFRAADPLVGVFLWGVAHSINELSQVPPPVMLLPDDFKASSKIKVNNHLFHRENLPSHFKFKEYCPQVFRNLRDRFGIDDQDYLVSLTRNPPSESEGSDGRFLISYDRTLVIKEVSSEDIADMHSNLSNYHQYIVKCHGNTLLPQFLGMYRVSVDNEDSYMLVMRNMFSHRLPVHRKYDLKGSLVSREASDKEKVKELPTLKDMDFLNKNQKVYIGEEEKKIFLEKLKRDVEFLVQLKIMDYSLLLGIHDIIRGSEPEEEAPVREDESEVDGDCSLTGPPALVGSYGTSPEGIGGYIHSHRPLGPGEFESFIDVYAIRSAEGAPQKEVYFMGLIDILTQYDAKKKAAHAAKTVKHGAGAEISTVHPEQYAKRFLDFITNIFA

[21] = biological target: Mitogen-activated protein kinase kinase kinase 12 (Homo sapiens) (UniProt Q12852); conditions: Compound concentration 1000.0 nM
[22] = biological target: Protein kinase C delta type (Homo sapiens) (UniProt Q05655); conditions: Compound concentration 1000.0 nM
[23] = biological target: Serine/threonine-protein kinase 38-like (Homo sapiens) (UniProt Q9Y2H1); conditions: Compound concentration 1000.0 nM
[24] = biological target: 5'-AMP-activated protein kinase catalytic subunit alpha-2 (Homo sapiens) (UniProt P54646); conditions: Compound concentration 1000.0 nM
5'-AMP-activated protein kinase catalytic subunit alpha-2 (Homo sapiens), sequence (P54646 whole entry, looked up): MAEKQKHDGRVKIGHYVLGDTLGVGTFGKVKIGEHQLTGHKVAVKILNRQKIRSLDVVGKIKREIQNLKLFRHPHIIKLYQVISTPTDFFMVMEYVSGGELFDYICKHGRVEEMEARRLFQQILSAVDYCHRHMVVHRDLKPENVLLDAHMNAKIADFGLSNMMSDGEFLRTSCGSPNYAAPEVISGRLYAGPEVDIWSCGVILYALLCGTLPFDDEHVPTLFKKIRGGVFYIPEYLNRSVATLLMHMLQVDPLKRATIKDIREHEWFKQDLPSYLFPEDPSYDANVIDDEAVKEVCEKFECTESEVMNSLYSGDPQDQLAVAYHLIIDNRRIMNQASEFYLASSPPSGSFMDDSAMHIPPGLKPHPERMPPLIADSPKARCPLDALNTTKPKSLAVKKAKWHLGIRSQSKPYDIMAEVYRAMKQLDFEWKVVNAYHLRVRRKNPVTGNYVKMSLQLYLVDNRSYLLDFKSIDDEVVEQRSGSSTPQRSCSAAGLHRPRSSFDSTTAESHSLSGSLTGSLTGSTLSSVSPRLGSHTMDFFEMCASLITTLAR

[25] = biological target: Ephrin type-A receptor 6 (Homo sapiens) (UniProt Q9UF33); conditions: Compound concentration 1000.0 nM
[26] = system: Tyrosine-protein kinase ABL1 (Homo sapiens), P00519 [M351T]; conditions: Compound concentration 1000.0 nM
[27] = biological target: Receptor-interacting serine/threonine-protein kinase 4 (Homo sapiens) (UniProt P57078); conditions: Compound concentration 1000.0 nM
[28] = biological target: Tyrosine-protein kinase Lyn (Homo sapiens) (UniProt P07948); conditions: Compound concentration 1000.0 nM
Tyrosine-protein kinase Lyn (Homo sapiens), sequence (P07948 2-512 limits assumed): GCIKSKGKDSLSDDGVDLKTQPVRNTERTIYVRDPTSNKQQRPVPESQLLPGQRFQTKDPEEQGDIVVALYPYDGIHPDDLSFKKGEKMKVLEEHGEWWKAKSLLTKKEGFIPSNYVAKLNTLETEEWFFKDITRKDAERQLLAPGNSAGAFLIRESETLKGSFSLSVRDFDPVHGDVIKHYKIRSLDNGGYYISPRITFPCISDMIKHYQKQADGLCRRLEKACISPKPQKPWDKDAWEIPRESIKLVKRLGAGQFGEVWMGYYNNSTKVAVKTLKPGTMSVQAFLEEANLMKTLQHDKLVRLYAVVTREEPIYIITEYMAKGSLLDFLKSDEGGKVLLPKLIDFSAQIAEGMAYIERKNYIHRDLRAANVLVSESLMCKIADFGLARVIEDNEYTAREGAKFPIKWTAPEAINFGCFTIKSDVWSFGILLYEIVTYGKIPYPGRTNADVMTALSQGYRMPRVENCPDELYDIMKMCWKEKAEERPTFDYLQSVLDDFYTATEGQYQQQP

[29] = biological target: Serine/threonine-protein kinase SIK3 (Homo sapiens) (UniProt Q9Y2K2); conditions: Compound concentration 1000.0 nM
[30] = biological target: Calcium/calmodulin-dependent protein kinase type II subunit delta (Homo sapiens) (UniProt Q13557); conditions: Compound concentration 1000.0 nM
[31] = system: Leucine-rich repeat serine/threonine-protein kinase 2 (Homo sapiens), Q5S007 [G2019S]; conditions: Compound concentration 1000.0 nM
[32] = biological target: cGMP-dependent protein kinase 1 (Homo sapiens) (UniProt Q13976); conditions: Compound concentration 1000.0 nM
[33] = system: ALK tyrosine kinase receptor (Homo sapiens), Q9UM73 [C1156Y]; conditions: Compound concentration 1000.0 nM
[34] = biological target: Serine/threonine-protein kinase N1 (Homo sapiens) (UniProt Q16512); conditions: Compound concentration 1000.0 nM
[35] = biological target: Sodium-dependent serotonin transporter (Homo sapiens) (UniProt P31645); conditions: Compound concentration 10.0 uM
[36] = biological target: TRAF2 and NCK-interacting protein kinase (Homo sapiens) (UniProt Q9UKE5); conditions: Compound concentration 1000.0 nM
[37] = system: Tyrosine-protein kinase ABL1 (Homo sapiens), P00519 [Q252H]; conditions: Compound concentration 1000.0 nM
[38] = biological target: MAP kinase-activated protein kinase 2 (Homo sapiens) (UniProt P49137); conditions: Compound concentration 1000.0 nM
[39] = biological target: Ephrin type-B receptor 6 (Homo sapiens) (UniProt O15197); conditions: Compound concentration 1000.0 nM

Tyrosine-protein kinase HCK (Homo sapiens), sequence (P08631 2-526 limits assumed): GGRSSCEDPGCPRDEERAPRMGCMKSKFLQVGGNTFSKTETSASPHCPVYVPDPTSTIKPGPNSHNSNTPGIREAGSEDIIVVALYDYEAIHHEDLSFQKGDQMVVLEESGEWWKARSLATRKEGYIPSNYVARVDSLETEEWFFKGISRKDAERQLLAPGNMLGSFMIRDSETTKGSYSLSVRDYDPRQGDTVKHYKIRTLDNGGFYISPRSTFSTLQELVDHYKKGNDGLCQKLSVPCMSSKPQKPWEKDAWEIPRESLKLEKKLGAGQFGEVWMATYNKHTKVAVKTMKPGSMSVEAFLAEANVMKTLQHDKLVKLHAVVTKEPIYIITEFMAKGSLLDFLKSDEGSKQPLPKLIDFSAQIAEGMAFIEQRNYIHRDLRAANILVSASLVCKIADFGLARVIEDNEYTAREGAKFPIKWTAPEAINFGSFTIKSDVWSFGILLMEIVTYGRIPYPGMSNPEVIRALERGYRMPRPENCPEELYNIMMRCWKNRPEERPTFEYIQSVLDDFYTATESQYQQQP

## C[C@H](c1cccc(C#N)c1)n1cc(Cl)cc(C(N)=O)c1=N [(R)-9s]
[1]
  residual activity: 98%
[2]
  inhibition: 4.64%
[3]
  residual activity: 97%
[4]
  residual activity: 100%
[5]
  residual activity: 89%
[6]
  residual activity: 100%
[7]
  residual activity: 89%
[8]
  residual activity: 90%
[9]
  residual activity: 57%
[10]
  residual activity: 100%
[11]
  residual activity: 91%
[12]
  residual activity: 55%
[13]
  residual activity: 100%
[14]
  residual activity: 33%
[15]
  residual activity: 100%
[16]
  residual activity: 100%
[17]
  residual activity: 93%
[18]
  residual activity: 71%
[19]
  residual activity: 100%
[20]
  residual activity: 100%
[21]
  residual activity: 100%
[22]
  residual activity: 91%
[23]
  residual activity: 68%
[24]
  residual activity: 94%
[25]
  residual activity: 86%
[26]
  residual activity: 100%
[27]
  residual activity: 71%
[28]
  residual activity: 81%
[29]
  residual activity: 100%
[30]
  residual activity: 100%
[31]
  residual activity: 100%
[32]
  residual activity: 100%
[33]
  residual activity: 89%
[34]
  residual activity: 65%
[35]
  inhibition: 9.99%
[36]
  residual activity: 100%
[37]
  residual activity: 84%
[38]
  residual activity: 100%
[39]
  residual activity: 87%

## C[C@@H](c1cccc(C#N)c1)n1cc(Cl)cc(C(N)=O)c1=N [(S)-9s]
[1]
  residual activity: 91%
[2]
  inhibition: -1.01%
[3]
  residual activity: 96%
[4]
  residual activity: 93%
[5]
  residual activity: 100%
[6]
  residual activity: 100%
[7]
  residual activity: 88%
[8]
  residual activity: 82%
[9]
  residual activity: 94%
[10]
  residual activity: 85%
[11]
  residual activity: 95%
[12]
  residual activity: 54%
[13]
  residual activity: 95%
[14]
  residual activity: 68%
[15]
  residual activity: 100%
[16]
  residual activity: 100%
[17]
  residual activity: 100%
[18]
  residual activity: 71%
[19]
  residual activity: 100%
[20]
  residual activity: 85%
[21]
  residual activity: 100%
[22]
  residual activity: 77%
[23]
  residual activity: 85%
[24]
  residual activity: 96%
[25]
  residual activity: 91%
[26]
  residual activity: 0%
[27]
  residual activity: 57%
[28]
  residual activity: 80%
[29]
  residual activity: 94%
[30]
  residual activity: 100%
[31]
  residual activity: 100%
[32]
  residual activity: 100%
[33]
  residual activity: 98%
[34]
  residual activity: 83%
[35]
  inhibition: 14.8%
[36]
  residual activity: 56%
[37]
  residual activity: 78%
[38]
  residual activity: 97%
[39]
  residual activity: 100%
